19 compounds from patent US10821100B2, “Triazolone compounds as mPGES-1 inhibitors” (Glenmark Pharmaceuticals S.A., priority 2012, dated 2020) can be followed below.

The assay addresses T1, Recombinant human mPGES-1 (Homo sapiens, UniProt O14684).
T1 construct: made in house; host or cells: CHO cells (crude microsomal fractions)
T1 sequence (O14684 1-152): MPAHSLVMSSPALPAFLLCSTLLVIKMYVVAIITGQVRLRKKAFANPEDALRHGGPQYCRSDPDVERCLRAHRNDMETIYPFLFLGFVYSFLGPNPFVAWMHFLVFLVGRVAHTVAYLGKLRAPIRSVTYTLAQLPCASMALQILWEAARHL
The experiment in a line: In-vitro screening of mPGES-1 inhibitors (inhibition of PGE2 formation from PGH2, HTRF detection). The format is biochemical. As to conditions: mPGES-1 enzyme; for inhibition at 1 µM: 1 μM test compound, read-out: Percentage inhibition at 1 μM; for inhibition at 1 µM / inhibition at 10 µM / inhibition at 3 µM: crude microsomal fractions; for inhibition at 10 µM: 10 μM test compound, read-out: Percentage inhibition at 10 μM; for IC50: class symbols; for inhibition at 3 µM: 3 μM test compound, read-out: Percentage inhibition at 3 μM. An excerpt: In-Vitro Protocol for Screening of mPGES-1 Inhibitors: mPGES-1 (Microsomal prostaglandin E synthase-1) is a microsomal enzyme that converts endoperoxide substrate PGH2 (prostaglandin H2) to product PGE2 (prostaglandin E2) by isomerization in the presence of reduced glutathione (GSH). mPGES-1 inhibitors were screened by assessing their ability to inhibit formation of PGE2 from PGH2 in the presence of mPGES-1 using an anti-PGE2 antibody based detection method. Recombinant human mPGES-1 was generated in-house by expression in CHO cells (Ouellet M et al. (2002), Protein Expression and Purification 26: 489-495). The assay was set up using crude microsomal fractions at a protein concentration of 40-60 μg/mL. Test compounds were prepared in 100% dimethyl sulfoxide (DMSO) to obtain 20 mM stock solution and then diluted using assay buffer comprising 0.1 M Potassium phosphate buffer with 2 mM EDTA. The final concentration of DMSO in the reaction was 0.5% (v/v). Negative controls were comprised of all assay reagents except the enzyme. Positive controls were comprised of the enzyme reaction in the absence of any inhibitor. Test compounds were incubated for 10 minutes in assay buffer containing 2.5 mM GSH and mPGES-1 enzyme followed by addition of PGH2 at a concentration of 15 μM for 1 minute. The reaction was stopped by addition of Stannous chloride (11 mg/ml) and PGE2 levels were measured ([…] et al. (2005), Journal of Biomolecular Screening 10(6) 599-605; Goedken R E et al. (2008), Journal of Biomolecular Screening 13 (7): 619-625) by HTRF kit (CisBio)). Inhibition of mPGES-1 enzyme activity was measured using the percent of reaction occurring in the positive control. Concentration response curves were plotted using percent inhibition of maximum enzyme reaction. The IC50 value was calculated from the concentration response curve by nonlinear regression analysis using GraphPad PRISM software.

Each structure is given as a SMILES string. A value given as a limit tells only on which side of the number the result lay.

As a reminder, the inhibition is the share of the control response that was lost under treatment. One may read the IC50 as the concentration that inhibits the measured activity by half. On to `COc1cc(-n2nc(-c3c(Cl)cccc3Cl)[nH]c2=O)ccc1C(=O)Nc1ccc(F)c(C(F)(F)F)c1` [Example-43, 4-(3-(2,6-Dichlorophenyl)-5-oxo-4,5-dihydro-1H-1,2,4-triazol-1-yl)-N-(4-fluoro-3-(trifluoromethyl)phenyl)-2-methoxybenzamide], for which the inhibition at 1 µM was determined as 98.6%, the inhibition at 10 µM is 99% and the IC50 is under 50 nM.

As for `COc1cc(-n2nc(-c3c(Cl)cccc3Cl)[nH]c2=O)ccc1C(=O)Nc1cc(C(F)(F)F)ccc1F` [Example-44, 4-(3-(2,6-Dichlorophenyl)-5-oxo-4,5-dihydro-1H-1,2,4-triazol-1-yl)-N-(2-fluoro-5-(trifluoromethyl)phenyl)-2-methoxybenzamide], the inhibition at 1 µM worked out at 97.4%, the inhibition at 10 µM is 99% and the IC50 was under 50 nM.

`COc1cc(-n2nc(-c3c(F)cccc3Cl)[nH]c2=O)ccc1C(=O)Nc1nc2ccc(F)cc2s1` [Example-45, 4-(3-(2-Chloro-6-fluorophenyl)-5-oxo-4,5-dihydro-1H-1,2,4-triazol-1-yl)-N-(6-fluorobenzo[d]thiazol-2-yl)-2-methoxybenzamide]: the inhibition at 1 µM stood at 81.7%, the inhibition at 10 µM was found to be 90.1% and the half-maximal inhibitory concentration (IC50) is under 50 nM.

In the case of `COc1cc(-n2nc(-c3c(F)cccc3Cl)[nH]c2=O)ccc1C(=O)Nc1nc2ccccc2[nH]1` [Example-46, N-(1H-Benzo[d]imidazol-2-yl)-4-(3-(2-chloro-6-fluorophenyl)-5-oxo-4,5-dihydro-1H-1,2,4-triazol-1-yl)-2-methoxybenzamide], the inhibition at 1 µM was 59.8% and the inhibition at 10 µM was 72.1%.

Consider `COc1cc(-n2nc(-c3c(F)cccc3Cl)[nH]c2=O)ccc1-c1nc(-c2cc(F)cc(C(F)(F)F)c2)no1` [Example-47, 3-(2-Chloro-6-fluorophenyl)-1-(4-(3-(3-fluoro-5-(trifluoromethyl)phenyl)-1,2,4-oxadiazol-5-yl)-3-methoxyphenyl)-1H-1,2,4-triazol-5(4H)-one], for which the inhibition at 1 µM was 89.5%, the inhibition at 10 µM came out at 96.5% and the IC50 was under 50 nM.

With `COc1cc(-n2nc(-c3c(F)cccc3Cl)[nH]c2=O)ccc1C(=O)Nc1nnc(C(F)(F)F)s1` [Example-48, 4-(3-(2-Chloro-6-fluorophenyl)-5-oxo-4,5-dihydro-1H-1,2,4-triazol-1-yl)-2-methoxy-N-(5-(trifluoromethyl)-1,3,4-thiadiazol-2-yl)benzamide], the inhibition at 1 µM worked out at 98.3%, the inhibition at 10 µM was determined as 100% and the IC50 was under 50 nM.

For `COc1cc(-n2nc(-c3c(Cl)cccc3Cl)[nH]c2=O)ccc1-c1nc(-c2ccc(Cl)cc2)no1` [Example-49, 1-(4-(3-(4-Chlorophenyl)-1,2,4-oxadiazol-5-yl)-3-methoxyphenyl)-3-(2,6-dichlorophenyl)-1H-1,2,4-triazol-5(4H)-one], the inhibition at 1 µM was 89.2%, the inhibition at 10 µM is 96.3% and the IC50 was under 50 nM.

Consider `COc1cc(-n2nc(-c3c(Cl)cccc3Cl)[nH]c2=O)ccc1-c1nc(C(C)C)no1` [Example-50, 3-(2,6-Dichlorophenyl)-1-(4-(3-isopropyl-1,2,4-oxadiazol-5-yl)-3-methoxyphenyl)-1H-1,2,4-triazol-5(4H)-one], for which the inhibition at 1 µM is 95.3%, the inhibition at 10 µM stood at 99.8% and the IC50 is 50 to 100 nM.

Take `O=c1[nH]c(-c2c(F)cccc2Cl)nn1-c1ccc(-c2nc(-c3ccc(Cl)cc3)no2)cc1` [Example-51, 3-(2-Chloro-6-fluorophenyl)-1-(4-(3-(4-chlorophenyl)-1,2,4-oxadiazol-5-yl)phenyl)-1H-1,2,4-triazol-5(4H)-one]: the inhibition at 1 µM was found to be 88.3%, the inhibition at 10 µM came to 86% and the 50% inhibitory concentration (IC50) is under 50 nM.

On to `COc1cc(-n2nc(-c3cc(CNC(=O)C4CC4)ccc3Cl)[nH]c2=O)ccc1C(=O)Nc1cccc(C(F)(F)F)c1` [Example-52, 4-(3-(2-Chloro-5-(cyclopropanecarboxamidomethyl)phenyl)-5-oxo-4,5-dihydro-1H-1,2,4-triazol-1-yl)-2-methoxy-N-(3-(trifluoromethyl)phenyl)benzamide], for which the inhibition at 1 µM worked out at 96.4%, the inhibition at 10 µM came to 98.3% and the IC50 was under 50 nM.

`COc1cc(-n2nc(-c3c(C)cccc3Cl)[nH]c2=O)ccc1C(=O)Nc1ccc(F)c(C(F)F)c1` [Example-53, 4-(3-(2-Chloro-6-methylphenyl)-5-oxo-4,5-dihydro-1H-1,2,4-triazol-1-yl)-N-(3-(difluoromethyl)-4-fluorophenyl)-2-methoxybenzamide]: the inhibition at 1 µM turned out to be 82.7%, the inhibition at 10 µM was 97.9% and the IC50 was under 50 nM.

For the compound `COc1cc(-n2nc(-c3c(C)cccc3Cl)[nH]c2=O)ccc1C(=O)Nc1cccc(C(F)F)c1` [Example-54, 4-(3-(2-Chloro-6-methylphenyl)-5-oxo-4,5-dihydro-1H-1,2,4-triazol-1-yl)-N-(3-(difluoromethyl)phenyl)-2-methoxybenzamide], the inhibition at 1 µM is 89.4%, the inhibition at 10 µM was 97.5% and the half-maximal inhibitory concentration (IC50) lay within 50 to 100 nM.

Turning to `COc1cc(-n2nc(-c3c(C)cccc3Cl)[nH]c2=O)ccc1-c1nc(-c2ccc(Cl)cc2)no1` [Example-55, 3-(2-Chloro-6-methylphenyl)-1-(4-(3-(4-chlorophenyl)-1,2,4-oxadiazol-5-yl)-3-methoxyphenyl)-1H-1,2,4-triazol-5(4H)-one], the inhibition at 1 µM is 81%, the inhibition at 3 µM amounted to 91.8% and the IC50 was under 50 nM.

As for `COc1cc(-n2nc(-c3c(C)cccc3Cl)[nH]c2=O)ccc1C(=O)Nc1cccc(C(F)(F)F)c1` [Example-56, 4-(3-(2-Chloro-6-methylphenyl)-5-oxo-4,5-dihydro-1H-1,2,4-triazol-1-yl)-2-methoxy-N-(3-(trifluoromethyl)phenyl)benzamide], the inhibition at 1 µM came to 98.1%, the inhibition at 10 µM is 98.5% and the IC50 is under 50 nM.

As to `COc1cc(-n2nc(-c3cc(CNC(=O)C4CC4)ccc3Cl)[nH]c2=O)ccc1-c1nc(-c2ccc(Cl)cc2)no1` [Example-57, N-(4-Chloro-3-(1-(4-(3-(4-chlorophenyl)-1,2,4-oxadiazol-5-yl)-3-methoxyphenyl)-5-oxo-4,5-dihydro-1H-1,2,4-triazol-3-yl)benzyl)cyclopropanecarboxamide], the inhibition at 1 µM is 98.7%, the inhibition at 3 µM was 98.5% and the IC50 was under 50 nM.

With `COc1cc(-n2nc(-c3c(F)cccc3Cl)[nH]c2=O)ccc1-c1nc2cc(C)c(C)cc2n1C` [Example-58, 3-(2-Chloro-6-fluorophenyl)-1-(3-methoxy-4-(1,5,6-trimethyl-1H-benzo[d]imidazol-2-yl)phenyl)-1H-1,2,4-triazol-5(4H)-one], the inhibition at 1 µM stood at 95.2%, the inhibition at 10 µM amounted to 97.3% and the IC50 lay in the range of 50 to 100 nM.

For `COc1cc(-n2nc(-c3c(F)cccc3Cl)[nH]c2=O)ccc1C#Cc1cc(Cl)ccc1Cl` [Example-59, 3-(2-Chloro-6-fluorophenyl)-1-(4-((2,5-dichlorophenyl)ethynyl)-3-methoxyphenyl)-1H-1,2,4-triazol-5(4H)-one], the inhibition at 1 µM is 93.9%, the inhibition at 10 µM came out at 96.8% and the IC50 was under 50 nM.

Turning to `COc1cc(-n2nc(-c3c(F)cccc3Cl)[nH]c2=O)ccc1C#Cc1cccc(Cl)c1F` [Example-60, 1-(4-((3-Chloro-2-fluorophenyl)ethynyl)-3-methoxyphenyl)-3-(2-chloro-6-fluorophenyl)-1H-1,2,4-triazol-5(4H)-one], the inhibition at 1 µM was 95.4%, the inhibition at 10 µM came to 93.1% and the IC50 was under 50 nM.

For `COc1cc(-n2nc(-c3c(F)cccc3Cl)[nH]c2=O)ccc1C#Cc1ccc(C(F)(F)F)cc1Cl` [Example-61, 1-(4-((2-Chloro-4-(trifluoromethyl)phenyl)ethynyl)-3-methoxyphenyl)-3-(2-chloro-6-fluorophenyl)-1H-1,2,4-triazol-5(4H)-one], the inhibition at 1 µM came out at 92.4%, the inhibition at 10 µM came to 96.8% and the IC50 was under 50 nM.
